Source: patent EP0121972A2, “N-aryl-alpha-amino-carboxamides” (JANSSEN PHARMACEUTICA N.V., priority 1983, dated 1984)
Structures can show the parent of a compound that is named as a salt.

Test system: multifocal ventricular arrhythmia
Experiment: Antiarrhythmic effect in dogs with ventricular arrhythmia after coronary artery ligation
Format: in vivo
Details: given intravenously; for minimal effective dose: Canis lupus familiaris, iv, lowest effective dose normalizing the cardial rhythm, about 16 hours after ligation of the anterior descendent branch of the left coronary artery, under neuroleptanalgesia, read-out: Antiarrhythmic effects in dogs LED in mg/kg body weight; for Antiarrhythmic effects in dogs duration: duration of action at the lowest effective dose, coronary-ligated dogs
Description: The compounds of formula (I) and their pharmaceutically acceptable acid addition salts and possible stereochemically isomeric forms thereof show excellent antiarrhythmic properties and as such they are useful in the normalization of irregular cardial rhythms. The antiarrhythmic effect of the compounds of this invention is clearly illustrated in the following experiment in dogs. The test was carried out under neuroleptanalgesia (1 ml per 10 kg body weight of fentanyl (0.4 mg/ml) and droperidol (20 mg/ml)).
The test compounds were given intravenously after a control period of 30 minutes.

Row | Compound | minimal effective dose | Antiarrhythmic effects in dogs duration
1 | Cc1cccc(C)c1NC(=O)C1(N(C)C)CCN([C@@H]2CCC[C@H]2O)CC1 (relative stereo) [compound 91] | 0.08 mg/kg | 220 min
2 | Cc1cccc(C)c1NC(=O)C1(N(C)C)CCNCC1 [compound 71, 4-(dimethylamino)-N-(2,6-dimethylphenyl)-4-piperidinecarboxamide] | 1.25 mg/kg | 240 min
3 | Cc1cccc(C)c1NC(=O)C1(N(C)C)CCN([C@@H]2CCC[C@H]2NCc2ccccc2)CC1 (relative stereo) [compound 129, trans-4-(dimethylamino)-N-(2,6-dimethylphenyl)-l-[2-[(phenylmethyl)amino]cyclopentyl]-4-piperidinecarboxamide] | 0.08 mg/kg | 
4 | C=CCN1CCC(C(=O)Nc2c(C)cccc2C)(N(C)C)CC1 [compound 162, 4-(dimethylamino)-N-(2,6-dimethylphenyl)-l-(2-propenyl)-4-piperidinecarboxamide] | 0.31 mg/kg | 25 min
5 | Cc1cccc(C)c1NC(=O)C1(N(C)C)CCN(CC(O)CO)CC1 (centres unmarked) [compound 97] | 0.31 mg/kg | 60 min
6 | CCN(CC)C1(C(=O)Nc2c(C)cccc2C)CCN([C@@H]2CCCC[C@H]2O)CC1 (relative stereo) [compound 93] | 0.63 mg/kg | 30 min
7 | CCOC(=O)N1CCC(N2CCC(C(=O)Nc3c(C)cccc3C)(N(C)C)CC2)C(OC)C1 (centres unmarked) [compound 144] | 0.16 mg/kg | 40 min
8 | CCCCN1CCC(C(=O)Nc2c(C)cccc2C)(N(C)C)CC1 [compound 137] | 0.16 mg/kg | 145 min
9 | Cc1cccc(C)c1NC(=O)C1(N(C)C)CCN([C@H]2CC[C@@H](O)C[C@@H]2O)CC1 [compound 202, (+)-[1-(1α,2β,4α)]-1-(2,4-dihydroxycyclohexyl)-4-(dimethylamino)-N-(2,6-dimethylphenyl)-4-piperidinecarboxamide] | 0.31 mg/kg | 5 min
10 | CO[C@@H]1CCCC[C@H]1N1CCC(C(=O)Nc2c(C)cccc2C)(N(C)C)CC1 (relative stereo) [compound 18, trans-4-(dimethylamino)-N-(2,6-dimethylphenyl)-l-(2-methoxycyclo-hexyl)-4-piperidinecarboxamide] | 0.08 mg/kg | 150 min
11 | Cc1cccc(C)c1NC(=O)C1(N(C)C)CCN([C@H]2CCC[C@@H]2N)CC1 (relative stereo) [compound 217, trans-l-(2-aminocyclopentyl)-4-(dimethylamino)-N-(2,6-dimethylphenyl)-4-piperidinecarboxamide] | 0.31 mg/kg | 50 min
12 | Cc1cccc(C)c1NC(=O)C1(N(C)C)CCN([C@H]2CNCC[C@@H]2O)CC1 (relative stereo) [compound 211, trans-4-(dimethylamino)-N-(2,6-dimethylphenyl)-4'-hydroxy-[l,3'-bipiperidine]-4-carboxamide] | 0.63 mg/kg | 160 min
13 | Cc1cccc(C)c1NC(=O)C1(N(C)C)CCN(C2CCCC2)CC1 [compound 130, l-cyclopentyl-4-(dimethylamino)-N-(2,6-dimethylphenyl)-4-piperidinecarboxamide] | 0.16 mg/kg | 65 min
14 | CCN(CC)C1(C(=O)Nc2c(C)cccc2C)CCN(C2CCCCC2)CC1 [compound 141] | 0.16 mg/kg | 40 min
15 | Cc1cccc(C)c1NC(=O)C1(N(C)C)CCN(CCO)CC1 [compound 167, 4-(dimethylamino)-N-(2,6-dimethylphenyl)-1-(2-hydroxyethyl)-4-piperidinecarboxamide] | 0.31 mg/kg | 220 min
16 | Cc1cccc(C)c1NC(=O)C1(N(C)C)CCN([C@@H]2CCCC[C@H]2O)CC1 (relative stereo) [compound 89, trans-4-(dimethylamino)-N-(2,6-dimethylphenyl)-1-(2-hydroxycyclohexyl)-4-piperidinecarboxamide] | 0.04 mg/kg | 240 min
17 | CCN(CC)CCCC(C)N1CCC(C(=O)Nc2c(C)cccc2C)(N(C)C)CC1 (centres unmarked) [compound 146] | 1.25 mg/kg | 45 min
18 | CCN(CC)C1(C(=O)Nc2c(C)cccc2C)CCN([C@@H]2CCC[C@H]2O)CC1 (relative stereo) [compound 92] | 0.31 mg/kg | 205 min

Row | Compound | minimal effective dose | Antiarrhythmic effects in dogs duration
19 | Cc1cccc(C)c1NC(=O)C1(N)CCN(C2CCCC2)CC1 [compound 190, 4-amino-l-cyclopentyl-N-(2,6-dimethylphenyl)-4-piperidinecarboxamide] | 1.25 mg/kg | 110 min
20 | Cc1cccc(C)c1NC(=O)C1(N(C)C)CCN([C@H]2CCCC[C@@H]2NC(N)=O)CC1 (relative stereo) [compound 224, trans-1-[2-[(aminocarbonyl)-amino]cyclohexyl]-4-(dimethyJamino)-N-(2,6-dimethylphenyl)-4-piperidinecarboxamide] | 0.04 mg/kg | 130 min
21 | Cc1cccc(C)c1NC(=O)C1(N(C)C)CCN(CC(O)CN)CC1 (centres unmarked) [compound 191, 1-(3-amino-2-hydroxypropyl)-4-(dimethylamino)-N-(2,6-dimethylphenyl)-4-piperidinecarboxamide] | 1.25 mg/kg | 20 min
22 | CCCN1CCC(C(=O)Nc2c(C)cccc2C)(N(C)C)CC1 [compound 136] | 0.16 mg/kg | 15 min
23 | Cc1cccc(C)c1NC(=O)C1(N(C)C)CCN([C@@H]2CCNC[C@H]2O)CC1 (relative stereo) [compound 210, trans-4-(dimethylamino)-N-(2,6-dimethylphenyl)-3'-hydroxy-[1,4'-bipiperidine]-4-carboxamide] | 0.16 mg/kg | 25 min
24 | COC1CNCCC1N1CCC(C(=O)Nc2c(C)cccc2C)(N(C)C)CC1 (stereo not drawn) [compound 85, cis-4-(dimethylamino)-N-(2,6-dimethylphenyl)-3'-methoxy-[l,4'-bipiperidine]-4-carboxamide] | 0.63 mg/kg | 65 min
25 | Cc1cccc(C)c1NC(=O)C1(N(C)C)CCN(C2CCNCC2)CC1 [compound 86, 4-(dimethylamino)-N-(2,6-dimethylphenyl)-[1,4'-bipiperidine]-4-carboxamide] | 0.16 mg/kg | 185 min
26 | CC(=O)N[C@H]1CCC[C@@H]1N1CCC(C(=O)Nc2c(C)cccc2C)(N(C)C)CC1 (relative stereo) [compound 219, trans-l-[2-(acetylamino)cyclopentyl]-4-(dimethylamino)-N-(2,6-dimethylphenyl)-4-piperidinecarboxamide] | 0.08 mg/kg | 285 min
27 | CCN1CCC(O)C(N2CCC(C(=O)Nc3c(C)cccc3C)(N(C)C)CC2)C1 (centres unmarked) [compound 212] | 0.31 mg/kg | 60 min
28 | CCN(CC)C1(C(=O)Nc2cc(Cl)ccc2C)CCN(C2CCCC2)CC1 [compound 166, N-(5-chloro-2-methylphenyl)-l-cyclopentyl-4-(diethylamino)-4-piperidinecarboxamide dihydrochloride hemihydrate] | 0.63 mg/kg | 200 min
29 | Cc1cccc(C)c1NC(=O)C1(N2CCOCC2)CCN([C@@H]2CCCC[C@H]2O)CC1 (relative stereo) [compound 127, trans-N-(2,6-dimethylphenyl)-l-(2-hydroxycyclohexyl)-4-(4-morpholinyl)-4-piperidinecarboxamide] | 0.31 mg/kg | 55 min
30 | CCN(CC)C1(C(=O)Nc2c(C)cccc2C)CCN(C(C)COC)CC1 (centres unmarked) [compound 140] | 0.31 mg/kg | 220 min
31 | Cc1cccc(C)c1NC(=O)C1(N(C)C)CCN([C@@H]2CCC[C@H]2N(CCO)Cc2ccccc2)CC1 (relative stereo) [compound 225, trans-4-(dimethyl-amino)-N-(2,6-dimethylphenyl)-1-[2-[(2-hydroxyethyl)(phenylmethyl)-amino]cyclopentyl]-4-piperidinecarboxamide] | 0.08 mg/kg | 140 min
32 | CCN(CC)CCN1CCC(C(=O)Nc2c(C)cccc2C)(N(C)C)CC1 [compound 163, 1-[2-(diethylamino)ethyl]-4-(dimethylamino)-N-(2,6-dimethylphenyl)-4-piperidinecarboxamide] | 0.31 mg/kg | 220 min
33 | CCN(C)C1(C(=O)Nc2c(C)cccc2C)CCN(C(C)C(N)=O)CC1 (centres unmarked) [compound 174] | 1.25 mg/kg | 120 min
34 | CCN(C)C1(C(=O)Nc2c(C)cccc2C)CCNCC1 [compound 73, N-(2,6-dimethylphenyl)-4-(ethylmethylamino)-4-piperidine carboxamide] | 0.63 mg/kg | 30 min
35 | Cc1cccc(C)c1NC(=O)C1(N(C)C)CCN(C(C)C)CC1 [compound 132] | 0.16 mg/kg | 140 min
36 | CCNC1(C(=O)Nc2c(C)cccc2C)CCN(C(C)C)CC1 [compound 189, N-(2,6-dimethylphenyl)-4-(ethylamino)-l-(l-methylethyl)-4-piperidinecarboxamide] | 0.63 mg/kg | 175 min
